Results from the supplement of paper PMC11061612.

Legend:
Experiment in all cases: combination Emax (second highest fraction inhibited in the dose matrix, 72 h); higher = more inhibition; extreme values may be limits of the assay
[1] = tested on: BHT-101 (Thyroid Gland Carcinoma)
Method in brief: (§1)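 Cell lines grown in DMEM/F12 or RPMI with 10% FBS were plated in 1536-well plates and held 24 hours at 37°C, 5% CO2 before 72 hours of exposure to two-drug dose matrices, with DMSO typically at 0.2%. CellTiter-Glo 2.0 luminescence gave viability, which was converted to inhibition. Vehicle wells were set to 0 and blank wells to 1. Combination Emax is the second-highest inhibition in the matrix, and Bliss excess is the observed combination effect minus the expected EA + EB − EA·EB, where EA and EB are the single-agent effects.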

[2] = tested on: BxPC-3 (Pancreatic Carcinoma)
Method in brief: as §1

[3] = tested on: CPC-N (Small Cell Lung Carcinoma)
Method in brief: as §1

[4] = tested on: DBTRG-05MG (Glioblastoma)
Method in brief: as §1

ES6 (Ewing's Sarcoma) = tested on: ES6 (Ewing's Sarcoma)
Method in brief: as §1

[5] = tested on: IA-LM (Non-Small Cell Lung Carcinoma)
Method in brief: as §1

[6] = tested on: LS-1034 (Colorectal Carcinoma)
Method in brief: as §1

[7] = tested on: MONO-MAC-6 (Acute Myeloid Leukemia)
Method in brief: as §1

NCI-H2373 (Mesothelioma) = tested on: NCI-H2373 (Mesothelioma)
Method in brief: as §1

[8] = tested on: NCI-H596 (Other Solid Carcinomas)
Method in brief: as §1

[9] = tested on: OAW-28 (Ovarian Carcinoma)
Method in brief: as §1

[10] = tested on: OVCAR-3 (Ovarian Carcinoma)
Method in brief: as §1

[11] = tested on: P32-ISH (Burkitt's Lymphoma)
Method in brief: as §1

[12] = tested on: SCC-4 (Oral Cavity Carcinoma)
Method in brief: as §1

SK-N-SH (Neuroblastoma) = tested on: SK-N-SH (Neuroblastoma)
Method in brief: as §1

[13] = tested on: SNU-407 (Colorectal Carcinoma)
Method in brief: as §1

[14] = tested on: SUP-M2 (T-Cell Non-Hodgkin's Lymphoma)
Method in brief: as §1

T47D (Breast Carcinoma) = tested on: T47D (Breast Carcinoma)
Method in brief: as §1

[15] = tested on: T84 (Colorectal Carcinoma)
Method in brief: as §1

[16] = tested on: TUR (Acute Myeloid Leukemia)
Method in brief: as §1

SMILES	combination Emax [1]	combination Emax [2]	combination Emax [3]	combination Emax [4]	combination Emax (ES6 (Ewing's Sarcoma))	combination Emax [5]	combination Emax [6]	combination Emax [7]	combination Emax (NCI-H2373 (Mesothelioma))	combination Emax [8]	combination Emax [9]	combination Emax [10]	combination Emax [11]	combination Emax [12]	combination Emax (SK-N-SH (Neuroblastoma))	combination Emax [13]	combination Emax [14]	combination Emax (T47D (Breast Carcinoma))	combination Emax [15]	combination Emax [16]
Cc1c2c(nn1C)CSCc1cc(n(C)n1)CSc1cc(c3ccccc3c1)OCCCc1c(C(=O)O)n(C)c3c-2c(Cl)ccc13 [AZD5991] + CC1(C)CCC(CN2CCN(c3ccc(C(=O)NS(=O)(=O)c4ccc(NCC5CCOCC5)c([N+](=O)[O-])c4)c(Oc4cnc5[nH]ccc5c4)c3)CC2)=C(c2ccc(Cl)cc2)C1 [Venetoclax] (first compound max 1 µM, 7x7, partner max 1 µM)	0.587	0.334	0.289	0.158	0.255	0.317	0.152	1	0.161	0.289	0.687	0.171	1	0.345	0.921	0.717	0.994	0.434	0.142	0.637
Cc1c2c(nn1C)CSCc1cc(n(C)n1)CSc1cc(c3ccccc3c1)OCCCc1c(C(=O)O)n(C)c3c-2c(Cl)ccc13 [AZD5991] + CN(C)CCCOc1ccc(-c2ccc3ncc4c(c3c2)n(C2CCOCC2)c(=O)n4C)cn1 [AZD0156] (first compound max 1 µM, 7x7, partner max 1 µM)	0.659	0.174	0.314	0.221	0.279	0.257	0.217	1	0.272	0.328	0.25	0.427	1	0.382	0.454	0.676	1	0.749	0.192	0.477
Cc1c2c(nn1C)CSCc1cc(n(C)n1)CSc1cc(c3ccccc3c1)OCCCc1c(C(=O)O)n(C)c3c-2c(Cl)ccc13 [AZD5991] + C[C@@H]1COCCN1C2=NC(=NC(=C2)C3(CC3)[S@](=N)(=O)C)C4=C5C=CNC5=NC=C4 [AZD6738] (first compound max 1 µM, 7x7, partner max 10 µM)	0.859	0.518	0.874	0.232	0.445	0.389	0.673	1	0.551	0.318	0.52	0.567	1	0.755	0.961	0.811	1	0.44	0.669	0.99
Cc1c2c(nn1C)CSCc1cc(n(C)n1)CSc1cc(c3ccccc3c1)OCCCc1c(C(=O)O)n(C)c3c-2c(Cl)ccc13 [AZD5991] + C[C@@H](Nc1cc(F)cc(F)c1)c1cc(C(=O)N(C)C)cc2c(=O)cc(N3CCOCC3)oc12 [AZD8186] (first compound max 1 µM, 7x7, partner max 3 µM)	0.659	0.206	0.294	0.266	0.354	0.201	0.172	1	0.287	0.299	0.418	0.439	1	0.598	0.481	0.672	0.996	0.504	0.139	0.391
Cc1c2c(nn1C)CSCc1cc(n(C)n1)CSc1cc(c3ccccc3c1)OCCCc1c(C(=O)O)n(C)c3c-2c(Cl)ccc13 [AZD5991] + Cc1cc2ncnn2cc1Nc1ncc2c(n1)n(C1CCOCC1)c(=O)n2C [AZD7648] (first compound max 1 µM, 7x7, partner max 10 µM)	0.599	0.231	0.245	0.214	0.334	0.295	0.272	1	0.409	0.367	0.264	0.272	1	0.458	0.481	0.675	1	0.475	0.0921	0.557
Cc1c2c(nn1C)CSCc1cc(n(C)n1)CSc1cc(c3ccccc3c1)OCCCc1c(C(=O)O)n(C)c3c-2c(Cl)ccc13 [AZD5991] + Cn1cnc2c(F)c(Nc3ccc(Br)cc3Cl)c(C(=O)NOCCO)cc21 [Selumetinib] (first compound max 1 µM, 7x7, partner max 3 µM)	0.913	0.483	0.237	0.344	0.209	0.24	0.587	1	0.318	0.241	0.352	0.218	1	0.839	0.414	0.789	1	0.364	0.406	0.629
C[C@@H]1COCCN1c1cc(C2([S@](C)(=N)=O)CC2)nc(-c2ccnc3[nH]ccc23)n1 [AZD6738] + O=C(c1cc(Cc2n[nH]c(=O)c3ccccc23)ccc1F)N1CCN(C(=O)C2CC2)CC1 [Olaparib] (first compound max 10 µM, 7x7, partner max 10 µM)	0.663	0.485	0.912	0.239	0.522	0.399	0.56	0.948	0.66	0.5	0.396	0.555	0.91	0.729	0.929	0.75	1	0.301	0.672	0.907
Cc1cc2ncnn2cc1Nc1ncc2c(n1)n(C1CCOCC1)c(=O)n2C [AZD7648] + C=CCn1c(=O)c2cnc(Nc3ccc(N4CCN(C)CC4)cc3)nc2n1-c1cccc(C(C)(C)O)n1 [AZD1775] (first compound max 10 µM, partner max 1 µM)	0.471	0.428	0.931	0.343	0.505	0.42	0.379	0.909	0.484	0.357	0.401	0.411	1	0.466	0.884	0.446	0.991	0.468	0.45	0.736
Cc1cc2ncnn2cc1Nc1ncc2c(n1)n(C1CCOCC1)c(=O)n2C [AZD7648] + CCN(CCO)CCCOc1ccc2c(Nc3cc(CC(=O)Nc4cccc(F)c4)[nH]n3)ncnc2c1 [AZD2811] (first compound max 10 µM, 7x7, partner max 1 µM)	0.25	0.25	0.795	0.228	0.407	0.268	0.264	0.787	0.534	0.243	0.217	0.116	0.935	0.307	0.625	0.376	0.932	0.456	0.287	0.284
Cc1cc2ncnn2cc1Nc1ncc2c(n1)n(C1CCOCC1)c(=O)n2C [AZD7648] + CN(C)CCCOc1ccc(-c2ccc3ncc4c(c3c2)n(C2CCOCC2)c(=O)n4C)cn1 [AZD0156] (first compound max 10 µM, 7x7, partner max 1 µM)	0.366	0.176	0.368	0.192	0.37	0.35	0.239	0.497	0.566	0.243	0.187	0.116	0.214	0.219	0.366	0.179	0.183	0.501	0.214	0.164
Cc1cc2ncnn2cc1Nc1ncc2c(n1)n(C1CCOCC1)c(=O)n2C [AZD7648] + C[C@@H]1COCCN1C2=NC(=NC(=C2)C3(CC3)[S@](=N)(=O)C)C4=C5C=CNC5=NC=C4 [AZD6738] (first compound max 10 µM, 7x7, partner max 10 µM)	0.626	0.36	0.911	0.306	0.601	0.402	0.696	0.899	0.674	0.365	0.42	0.233	0.938	0.575	0.859	0.663	0.992	0.464	0.706	0.907
Cc1cc2ncnn2cc1Nc1ncc2c(n1)n(C1CCOCC1)c(=O)n2C [AZD7648] + O=C(c1cc(Cc2n[nH]c(=O)c3ccccc23)ccc1F)N1CCN(C(=O)C2CC2)CC1 [Olaparib] (first compound max 10 µM, 7x7, partner max 10 µM)	0.383	0.0851	0.31	0.0842	0.222	0.158	0.0469	0.317	0.572	0.361	0.188	0.145	0.207	0.259	0.444	0.239	0.831	0.313	0	0.114
NC1(C(=O)N[C@@H](CCO)c2ccc(Cl)cc2)CCN(c2ncnc3[nH]ccc23)CC1 [Capivasertib] + CC(=O)c1c(C)c2cnc(Nc3ccc(N4CCNCC4)cn3)nc2n(C2CCCC2)c1=O [Palbociclib] (first compound max 10 µM, 7x7, partner max 10 µM)	0.675	0.23	0.382	0.23	0.46	0.206	0.499	0.728	0.538	0.596	0.191	0.379	0.774	0.271	0.454	0.678	0.89	0.434	0.267	0.876
